Data: ChEMBL document CHEMBL3588845, “Protozoan Parasite Growth Inhibitors Discovered by Cross-Screening Yield Potent Scaffolds for Lead Discovery” (J Med Chem, 2015)
pEC50: −log10 of the molar value.

Tested on: Leishmania major
Experiment: Antiparasite activity against Leishmania major promastigotes assessed as growth inhibition incubated for 44 hrs by alamar blue dye based fluorescence assay
Format: functional, organism-based
Conditions: not given

Row | SMILES | pEC50
1 | O=S(=O)(c1ccc(-c2ccc3c(Nc4ccc(OCc5ccccc5)c(Cl)c4)nncc3c2)cc1)N1CCOCC1 | < 4.82
2 | CN1CCN(S(=O)(=O)c2ccc(-c3ccc4cnnc(Nc5ccc(OCc6cccc(F)c6)c(Cl)c5)c4c3)cc2)CC1 | < 5.49
3 | CN1CCN(S(=O)(=O)c2ccc(-c3ccc4c(Nc5ccc(OCc6cccc(F)c6)c(Cl)c5)nncc4c3)cc2)CC1 | 5.89
4 | CN1CCCN(S(=O)(=O)c2ccc(-c3ccc4cnnc(Nc5ccc(OCc6cccc(F)c6)c(Cl)c5)c4c3)cc2)CC1 | < 4.82
5 | CN1CCCN(S(=O)(=O)c2ccc(-c3ccc4c(Nc5ccc(OCc6cccc(F)c6)c(Cl)c5)nncc4c3)cc2)CC1 | 6.39
6 | N#Cc1cnc2ccc(-c3cccc(N4CCOCC4)c3)cc2c1Nc1ccc(OCc2cccc(F)c2)c(Cl)c1 | < 4.82

Tested on: Trypanosoma brucei
Experiment: Antiparasite activity against Trypanosoma brucei 427 assessed as growth inhibition at 5 uM incubated for 48 hrs by PrestoBlue based fluorescence assay
Format: functional
Conditions: Trypanosoma brucei, 427, 48 h; read-out: GI

Row | SMILES | inhibition of growth at 5 µM [%]
7 | N#Cc1cnc2ccc(-c3cccc(N4CCOCC4)c3)cc2c1Nc1ccc(OCc2cccc(F)c2)c(Cl)c1 | 49

Tested on: Trypanosoma brucei
Experiment: Antiparasite activity against Trypanosoma brucei 427 assessed as growth inhibition incubated for 48 hrs by PrestoBlue based fluorescence assay
Format: functional, organism-based
Conditions: Trypanosoma brucei, 427, 48 h

Row | SMILES | pEC50
8 | O=S(=O)(c1ccc(-c2ccc3c(Nc4ccc(OCc5ccccc5)c(Cl)c4)nncc3c2)cc1)N1CCOCC1 | 6.00
9 | CN1CCN(S(=O)(=O)c2ccc(-c3ccc4cnnc(Nc5ccc(OCc6cccc(F)c6)c(Cl)c5)c4c3)cc2)CC1 | 5.70
10 | CN1CCN(S(=O)(=O)c2ccc(-c3ccc4c(Nc5ccc(OCc6cccc(F)c6)c(Cl)c5)nncc4c3)cc2)CC1 | 5.92
11 | CN1CCCN(S(=O)(=O)c2ccc(-c3ccc4cnnc(Nc5ccc(OCc6cccc(F)c6)c(Cl)c5)c4c3)cc2)CC1 | 6.21
12 | CN1CCCN(S(=O)(=O)c2ccc(-c3ccc4c(Nc5ccc(OCc6cccc(F)c6)c(Cl)c5)nncc4c3)cc2)CC1 | 6.29

Tested on: Trypanosoma cruzi
Experiment: Antiparasite activity against Trypanosoma cruzi Tulahuen expressing beta-galactosidase assessed as growth inhibition incubated for 96 hrs by CPRG dye based assay
Format: functional, organism-based
Conditions: not given

Row | SMILES | pEC50
13 | O=S(=O)(c1ccc(-c2ccc3c(Nc4ccc(OCc5ccccc5)c(Cl)c4)nncc3c2)cc1)N1CCOCC1 | < 4.30
14 | CN1CCN(S(=O)(=O)c2ccc(-c3ccc4cnnc(Nc5ccc(OCc6cccc(F)c6)c(Cl)c5)c4c3)cc2)CC1 | < 4.30
15 | CN1CCN(S(=O)(=O)c2ccc(-c3ccc4c(Nc5ccc(OCc6cccc(F)c6)c(Cl)c5)nncc4c3)cc2)CC1 | 4.74
16 | CN1CCCN(S(=O)(=O)c2ccc(-c3ccc4cnnc(Nc5ccc(OCc6cccc(F)c6)c(Cl)c5)c4c3)cc2)CC1 | 4.77
17 | CN1CCCN(S(=O)(=O)c2ccc(-c3ccc4c(Nc5ccc(OCc6cccc(F)c6)c(Cl)c5)nncc4c3)cc2)CC1 | 5.89
18 | N#Cc1cnc2ccc(-c3cccc(N4CCOCC4)c3)cc2c1Nc1ccc(OCc2cccc(F)c2)c(Cl)c1 | < 4.30

Tested on: Plasmodium falciparum
Experiment: Antiparasite activity against drug resistant Plasmodium falciparum C235 assessed as growth inhibition incubated for 72 hrs by SYBR green fluorescence assay
Format: functional, organism-based
Conditions: C235, 72 h

Row | SMILES | pEC50
19 | O=S(=O)(c1ccc(-c2ccc3c(Nc4ccc(OCc5ccccc5)c(Cl)c4)nncc3c2)cc1)N1CCOCC1 | 6.77
20 | CN1CCN(S(=O)(=O)c2ccc(-c3ccc4cnnc(Nc5ccc(OCc6cccc(F)c6)c(Cl)c5)c4c3)cc2)CC1 | 6.42
21 | CN1CCN(S(=O)(=O)c2ccc(-c3ccc4c(Nc5ccc(OCc6cccc(F)c6)c(Cl)c5)nncc4c3)cc2)CC1 | 7.12
22 | CN1CCCN(S(=O)(=O)c2ccc(-c3ccc4cnnc(Nc5ccc(OCc6cccc(F)c6)c(Cl)c5)c4c3)cc2)CC1 | 6.74
23 | CN1CCCN(S(=O)(=O)c2ccc(-c3ccc4c(Nc5ccc(OCc6cccc(F)c6)c(Cl)c5)nncc4c3)cc2)CC1 | 7.35
24 | N#Cc1cnc2ccc(-c3cccc(N4CCOCC4)c3)cc2c1Nc1ccc(OCc2cccc(F)c2)c(Cl)c1 | 6.14

Tested on: not listed separately
Experiment: Toxicity against human HepG2 cells incubated for 48 hrs by MTT assay
Format: cell-based
Conditions: read-out: TC50

Row | SMILES | CC50 at 48 h [µM]
25 | O=S(=O)(c1ccc(-c2ccc3c(Nc4ccc(OCc5ccccc5)c(Cl)c4)nncc3c2)cc1)N1CCOCC1 | > 15
26 | CN1CCN(S(=O)(=O)c2ccc(-c3ccc4cnnc(Nc5ccc(OCc6cccc(F)c6)c(Cl)c5)c4c3)cc2)CC1 | > 5
27 | CN1CCN(S(=O)(=O)c2ccc(-c3ccc4c(Nc5ccc(OCc6cccc(F)c6)c(Cl)c5)nncc4c3)cc2)CC1 | > 15
28 | CN1CCCN(S(=O)(=O)c2ccc(-c3ccc4cnnc(Nc5ccc(OCc6cccc(F)c6)c(Cl)c5)c4c3)cc2)CC1 | 14
29 | CN1CCCN(S(=O)(=O)c2ccc(-c3ccc4c(Nc5ccc(OCc6cccc(F)c6)c(Cl)c5)nncc4c3)cc2)CC1 | 3.4
30 | N#Cc1cnc2ccc(-c3cccc(N4CCOCC4)c3)cc2c1Nc1ccc(OCc2cccc(F)c2)c(Cl)c1 | > 15

Tested on: Plasmodium falciparum
Experiment: Antiparasite activity against Plasmodium falciparum D6 assessed as growth inhibition incubated for 72 hrs by SYBR green fluorescence assay
Format: functional, organism-based
Conditions: D6, 72 h

Row | SMILES | pEC50
31 | O=S(=O)(c1ccc(-c2ccc3c(Nc4ccc(OCc5ccccc5)c(Cl)c4)nncc3c2)cc1)N1CCOCC1 | 6.96
32 | CN1CCN(S(=O)(=O)c2ccc(-c3ccc4cnnc(Nc5ccc(OCc6cccc(F)c6)c(Cl)c5)c4c3)cc2)CC1 | 6.89
33 | CN1CCN(S(=O)(=O)c2ccc(-c3ccc4c(Nc5ccc(OCc6cccc(F)c6)c(Cl)c5)nncc4c3)cc2)CC1 | 7.35
34 | CN1CCCN(S(=O)(=O)c2ccc(-c3ccc4cnnc(Nc5ccc(OCc6cccc(F)c6)c(Cl)c5)c4c3)cc2)CC1 | 7.03
35 | CN1CCCN(S(=O)(=O)c2ccc(-c3ccc4c(Nc5ccc(OCc6cccc(F)c6)c(Cl)c5)nncc4c3)cc2)CC1 | 7.54
36 | N#Cc1cnc2ccc(-c3cccc(N4CCOCC4)c3)cc2c1Nc1ccc(OCc2cccc(F)c2)c(Cl)c1 | 6.32

Tested on: Leishmania major
Experiment: Antiparasite activity against luciferase-expressing Leishmania major amastigotes isolated from infected in mouse RAW264.7 cells assessed as growth inhibition incubated for 96 hrs by luciferase reporter gene assay
Format: functional, organism-based
Conditions: RAW264.7, 96 h

Row | SMILES | pEC50
37 | O=S(=O)(c1ccc(-c2ccc3c(Nc4ccc(OCc5ccccc5)c(Cl)c4)nncc3c2)cc1)N1CCOCC1 | < 4.82
38 | CN1CCN(S(=O)(=O)c2ccc(-c3ccc4cnnc(Nc5ccc(OCc6cccc(F)c6)c(Cl)c5)c4c3)cc2)CC1 | < 5.40
39 | CN1CCN(S(=O)(=O)c2ccc(-c3ccc4c(Nc5ccc(OCc6cccc(F)c6)c(Cl)c5)nncc4c3)cc2)CC1 | < 4.82
40 | CN1CCCN(S(=O)(=O)c2ccc(-c3ccc4cnnc(Nc5ccc(OCc6cccc(F)c6)c(Cl)c5)c4c3)cc2)CC1 | 5.25
41 | CN1CCCN(S(=O)(=O)c2ccc(-c3ccc4c(Nc5ccc(OCc6cccc(F)c6)c(Cl)c5)nncc4c3)cc2)CC1 | 5.96
42 | N#Cc1cnc2ccc(-c3cccc(N4CCOCC4)c3)cc2c1Nc1ccc(OCc2cccc(F)c2)c(Cl)c1 | < 4.82

Tested on: Plasmodium falciparum
Experiment: Antiparasite activity against drug resistant Plasmodium falciparum W2 assessed as growth inhibition incubated for 72 hrs by SYBR green fluorescence assay
Format: functional, organism-based
Conditions: W2, 72 h

Row | SMILES | pEC50
43 | O=S(=O)(c1ccc(-c2ccc3c(Nc4ccc(OCc5ccccc5)c(Cl)c4)nncc3c2)cc1)N1CCOCC1 | 6.46
44 | CN1CCN(S(=O)(=O)c2ccc(-c3ccc4cnnc(Nc5ccc(OCc6cccc(F)c6)c(Cl)c5)c4c3)cc2)CC1 | 6.37
45 | CN1CCN(S(=O)(=O)c2ccc(-c3ccc4c(Nc5ccc(OCc6cccc(F)c6)c(Cl)c5)nncc4c3)cc2)CC1 | 6.89
46 | CN1CCCN(S(=O)(=O)c2ccc(-c3ccc4cnnc(Nc5ccc(OCc6cccc(F)c6)c(Cl)c5)c4c3)cc2)CC1 | 6.60
47 | CN1CCCN(S(=O)(=O)c2ccc(-c3ccc4c(Nc5ccc(OCc6cccc(F)c6)c(Cl)c5)nncc4c3)cc2)CC1 | 7.19
48 | N#Cc1cnc2ccc(-c3cccc(N4CCOCC4)c3)cc2c1Nc1ccc(OCc2cccc(F)c2)c(Cl)c1 | 6.00
